Experimental data taken from patent US7429460B2, “Methods of screening for inhibitors of phospholipid synthesis related to glycolipid-storage diseases” (Yeda Research and Development Co., Ltd., priority 2003, dated 2008).

What was measured:
[1] = tested on: rat hippocampal neurons; experiment: Labeling of neuronal lipids with [14C]methyl choline; format: cell-based; conditions: after 4-days of treatment, remained elevated for at least 8-days
Experimental: Neurons were incubated for 48 h with 1 μCi [^14C]methyl choline/ml of culture medium. Subsequently, medium was removed and the neurons were washed 3-times with phosphate-buffered saline. Neurons were removed from the cover slips by scraping with a rubber policeman into 2 ml of cold methanol, and then sonicated. Part of the resulting suspension was used for lipid analysis, part for analysis of the incorporation of total radioactivity into the cells, and part for DNA analysis (see below).
Lipids were extracted by addition of chloroform to obtain a final chloroform/methanol ratio of 1:1 (v/v). The lower phase was dried under N2 and the upper phase was kept for analysis of [^14C]methyl choline incorporation into water-soluble metabolites. […] One ml of methanol and 5 ml of Optima Gold scintillation fluid (Packard, Downers Groove, Ill.) were added to each vial for scintillation counting, and radioactivity was determined in a Packard 2100 beta radiospectrometer equipped with the Transformed Spectral Index of the External Standard/Automatic Efficiency Control (tSIE/AEC) program for quench correction and counting of double radiolabeled samples.

[2] = tested on: rat hippocampal neurons; experiment: [14C]PC degradation and acetolysis of [14C]PC in neurons; format: cell-based; conditions: CBE-treated neurons
Experimental: In some cases, acetolysis was performed to determine the amount of [^14C]-radioactivity that remained in the [^14C]methyl choline head group moiety of [^14C]PC after 48 h labeling with [^14C]methyl choline. [^14C]PC was removed from TLC plates by scraping, eluted from the silica using chloroform/methanol/acetic acid/water (50:39:1:10, v/v/v/v), and subjected to acetolysis. Briefly, 2 ml of acetic anhydride/acetic acid (2:3, v/v) was added to the tubes containing [^14C]PC, the mixture heated at 140° C. for 16 h, 200 μl of water added to each tube, dried under N2, and separated into aqueous and organic phases. […] [^14C]-Lipids and the [^14C]-head group polar moieties were analyzed and quantified as above.
Since metabolic labeling with [^14C]methyl choline was performed for up to 48 h (due to the relatively low amount of neurons available), we analyzed whether the increase in [^14C]methyl choline levels was due to changes in the rate of [^14C]PC synthesis or in the rate of [^14C]PC degradation. Neurons were incubated with [^14C]methyl choline to metabolically label [^14C]PC, and the rate of [^14C]PC degradation measured. No difference in the rate of degradation between control and CBE-treated neurons was detected (FIG. 3). […]

[3] = tested on: CTP:phosphocholine cytidylyltransferase (CCT); experiment: CCT assay in homogenates of treated hippocampal neurons; format: cell-based, rat; conditions: neurons incubated with 500 μM CBE for 4- or 8-days
Experimental: Neurons from individual cover slips were washed twice with ice-cold phosphate-buffered saline, and cells removed by scraping into 300 μl of buffer containing 50 mM imidazole, 2 mM EDTA, 150 mM KCl, 6 mM ADP, 0.2 mM phenylmethylsulfonylfluoride, 1 μg/ml pepstatin and 1 μg/ml leupeptin. After brief sonication, an aliquot was removed for DNA determination and 100 μl was used for the CCT assay.
CCT was assayed as described (Weinhold P A and Feldman D A. 1992. Choline-phosphate cytidylyltransferase. Methods Enzymol. 209, 248-258), with some minor modifications. The assay was performed in a final volume of 200 μl containing 1.6 mM phosphorylcholine/0.25 μCi [^14C]methyl phosphorylcholine, 3 mM CTP, 12 mM magnesium acetate, and DOPC liposomes with or without oleic acid and GicCer or GalCer, as indicated in the figure legends. Liposomes were prepared by sonicating resuspended lipids in the assay buffer at room temperature for 3 min using a sonicator (Sonics & Materials Inc., Newtown, Conn.) fitted with a micro-tip probe set to 750 W output, using 25% of the maximal amplitude and with pulsations of 9.0 sec every 9.2 sec, which gave a translucent liposome preparation with no precipitates. The final concentration of DOPC and oleic acid in the liposomes was 500 μM each. […]

elevation of CCT activity [3]: 2-3 fold
Structure (SMILES): O[C@H]1[C@H](O)[C@@H](O)[C@@H]2O[C@@H]2[C@@H]1O (racemic) [CBE, conduritol-B-epoxide]
[14C]methyl choline incorporation into [14C]SM and [14C]PC [1]: significant increase | rate of [14C]PC degradation versus control [2]: No difference
